Test system: Bovine endothelial cells
Experiment: Endothelial cell tube formation on Matrigel
Format: cell-based
Conditions: 10 μM, image analysis
Experimental: Bovine endothelial cells were harvested by brief exposure to 1 mM EDTA, washed with DMEM containing 0.1% bovine serum albumin and added to a layer of Matrigel (basement membrane components) in a 24 well plate to a density of 50,000 cells per well. After attachment, culture media (1.0 ml) was added and the plates incubated as a monolayer culture in the presence or absence of various concentrations of TMI. The plates were analyzed hourly using Hoffman optics for endothelial tube formation and growth. Photomicrographs were taken for estimation of relative inhibitory action.
The action of TMI on angiogenesis was evaluated using in vitro techniques. Bovine endothelial cells seeded on matrigel (a basement membrane preparation made up of laminin, collagen type IV, heparin sulfate proteoglycan and entactin) will form tubes which elongate as a function of time. […] A dose of 10 μM of TMI decreased tube area by more than 70%, as measured by image analysis.

For `CC/C(=C(\c1ccccc1)c1ccc(OCC[N+](C)(C)C)cc1)c1ccccc1` [TMI, Tamoxifen methiodide], the “decrease of tube area” value was “more than 70%”.
